Reference: patent publication US7192760B2 (priority 2000, dated 2007)
Like-named read-outs stand apart in the source and are kept apart here.

Key:
[1] = system: Brevibacterium lactofermentum CJJA21; settings: strain CJJA21; sodium azide 800 mg/l; cultivation at 30° C. for 6 days
[2] = system: Brevibacterium lactofermentum KFCC-10680; settings: strain KFCC-10680, cultivation at 30° C. for 6 days
[3] = system: Brevibacterium lactofermentum CJJA22; assay: α-Aminobutyric acid resistance: growth on minimal medium containing α-aminobutyric acid; assay type: cell-based; settings: strain printed CJJA21; α-aminobutyric acid 20 g/l; cultivation at 30° C. for 6 days
[4] = system: Brevibacterium lactofermentum KFCC-10680; assay: as above; assay type: cell-based; settings: strain KFCC-10680, cultivation at 30° C. for 6 days

| Structure (SMILES) | growth [1] | growth ([2]; sodium azide 100 mg/l) | growth ([2]; sodium azide 200 mg/l) | growth ([2]; sodium azide 300 mg/l) | growth ([2]; sodium azide 500 mg/l) | growth ([2]; sodium azide 800 mg/l) | growth [3] | growth ([4]; α-aminobutyric acid 5 g/l) | growth ([4]; α-aminobutyric acid 10 g/l) | growth ([4]; α-aminobutyric acid 15 g/l) | growth ([4]; α-aminobutyric acid 20 g/l) |
| --- | --- | --- | --- | --- | --- | --- | --- | --- | --- | --- | --- |
| [N-]=[N+]=[N-] [Sodium azide, sodium azide] | − | + | + | − | − | − |  |  |  |  |  |
| CCC(N)C(=O)O (racemic) [α-aminobutyric acid, D,L-α-amino-n-butyric acid] |  |  |  |  |  |  | − | + | − | − | − |
